Literature values in patent US20160175335A1, “ANTIFUNGAL COMBINATION THERAPY OF TAVABOROLE AND EFINACONAZOLE” (priority 2014, published 2016).

Tested on: dermatophytes, yeasts and non-dermatophyte molds
Conditions: against dermatophytes

C=C1CCN([C@H](C)[C@](O)(Cn2cncn2)c2ccc(F)cc2F)CC1 [Efinaconazole, ((2R,3R)-2-(2,4-difluorophenyl)-3-(4-methylenepiperidin-1yl)-1-(1H-1,2,4-triazol-1-yl)butan-2-ol)]
effectiveness in vitro compared with other antifungal agents: more effective in vitro than terbinafine, itraconazole, ciclopirox and amorolfine
